Test results from US8518968B2, “Hydrazone and diacyl hydrazine compounds and methods of use” (The United States of America, as represented by the …, priority 2009, dated 2013).
Structures can show the parent of a compound that is named as a salt.

These compounds were tested on JEKO-1 cells stably transfected with shRNAs to luciferase or NOXA (assay: Effect of NOXA shRNA on cytotoxicity in JEKO-1 cells (MTT)). Conditions: JEKO-1 shLuc vs shNoxa, 24 hours.
Assay type: cell-based
Experimental: The effect of NOXA on cytotoxicity of CBU-028, EERI, or bortezomib is determined. FIG. 4 presents graphs comparing CBU-028, EERI, and bortezomib with respect to percent cell viability as a function of concentration, measured using JEKO-1 cells stably transfected with shRNAs to luciferase (shLuc, control, ▪) or NOXA (shNoxa, ◯, sequence: [NT]) after treatment with the compound for 24 hrs, with viability determined with MTT as described above and normalized to the untreated control.

SMILES | requirement of NOXA for cytotoxicity
CC(C)C[C@H](NC(=O)[C@H](Cc1ccccc1)NC(=O)c1cnccn1)B(O)O [bortezomib] | Noxa is equally required

Each compound was assayed on JEKO-1 cells (assay: cells). Conditions: Homo sapiens, JeKo-1, 48 h.

SMILES | IC50 [µM]
CC1(C)C(N(O)C(=O)Nc2ccc(C(F)(F)F)cc2)N(c2ccc(C(F)(F)F)cc2)C(=O)N1CC(=O)NN (centres unmarked) [CBU-007, 1-(1-(2-hydrazinyl-2-oxoethyl)-5,5-dimethyl-2-oxo-3-(4-(tri-fluoromethyl)phenyl)imi-dazolidin-4-yl)-1-hydroxy-3-(4-(trifluoromethyl)phenyl)urea] | 30
O=C(N/N=C/C=C/c1ccc([N+](=O)[O-])o1)c1ccc(C(=O)N/N=C/C=C/c2ccc([N+](=O)[O-])o2)c(O)c1O [CBU-049, (N′1E,N′4E)-2,3-dihydroxy-N′1,N′4-bis((E)-3-(5-nitrofuran-2-yl)allylidene)terephthalo hydrazide] | 1.5

Same assay, conditions: Homo sapiens, JeKo-1, 48 h, JEKO-1 cells, incubated 2 days, MTT, four parameter logistic fit

SMILES | IC50 [µM]
CC1(C)C(N(O)C(=O)Nc2ccc(C(F)(F)F)cc2)N(c2ccc(C(F)(F)F)cc2)C(=O)N1CC(=O)N/N=C/C=C/c1ccc([N+](=O)[O-])o1 (centres unmarked) [CBU-008] | 2.5
CC1(C)C(N(O)C(=O)Nc2ccc(Cl)cc2)N(c2ccc(C(F)(F)F)cc2)C(=O)N1CC(=O)N/N=C/C=C/c1ccc([N+](=O)[O-])o1 (centres unmarked) [CBU-013] | 3
CC1(C)C(N(O)C(=O)Nc2ccc(C(F)(F)F)cc2)N(c2ccc(Cl)cc2)C(=O)N1CC(=O)N/N=C/C=C/c1ccc([N+](=O)[O-])o1 (centres unmarked) [CBU-014] | 3
O=C(N/N=C/C=C/c1ccc([N+](=O)[O-])o1)c1ccccc1 [CBU-015, (E)-N′-((E)-3-(5-nitrofuran-2-yl)allylidene)benzohydrazide] | 8
O=C(N/N=C/C=C/c1ccc([N+](=O)[O-])o1)c1cccnc1 [CBU-016, (E)-N′-((E)-3-(5-nitrofuran-2-yl)allylidene)nicotinonhydrazide] | 7
CCNC(=S)N/N=C/C=C/c1ccc([N+](=O)[O-])o1 [CBU-017, (E)-N-ethyl-2-((E)-3-(5-nitrofuran-2-yl)allylidene)hydrazine-carbothioamide] | 15
CC(C)(C)OC(=O)N/N=C/C=C/c1ccc([N+](=O)[O-])o1 [CBU-018, (E)-tert-butyl 2-((E)-3-(5-nitrofuran-2-yl)allylidene)hydrazine-carboxylate] | 18
C[N+](C)(C)CC(=O)N/N=C/C=C/c1ccc([N+](=O)[O-])o1 [CBU-019] | 3.5
N=C(N)N/N=C/C=C/c1ccc([N+](=O)[O-])o1 [CBU-020, (E)-2-((E)-3-(5-nitrofuran-2-yl)allylidene)hydrazine-carboximidamide hydrochloride] | 4
O=C(N/N=C/C=C/c1ccc([N+](=O)[O-])o1)c1cccc(O)c1 [CBU-021, (E)-3-hydroxy-N′-((E)-3-(5-nitrofuran-2-yl)allylidene)benzohydrazide] | 8
O=C(CNC(=O)Nc1ccc(Cl)cc1)N/N=C/C=C/c1ccc([N+](=O)[O-])o1 [CBU-022, 1-(4-chlorophenyl)-3-(2-((E)-2-((E)-3-(5-nitrofuran-2-yl)allylidene)hydrazinyl)-2-oxoethyl)urea] | 6
CC1(C)C(N(O)C(=O)Nc2ccc(Cl)cc2)N(c2ccc(Cl)cc2)C(=O)N1CC(=O)N/N=C/C=C/c1ccco1 (centres unmarked) [CBU-023] | 15
CC1(C)C(N(O)C(=O)Nc2ccc(Cl)cc2)N(c2ccc(Cl)cc2)C(=O)N1CC(=O)N/N=C/c1ccc([N+](=O)[O-])o1 (centres unmarked) [CBU-024] | 7
O=C(N/N=C/C=C/c1ccc([N+](=O)[O-])o1)c1ccccc1O [CBU-025, (E)-2-hydroxy-N′-((E)-3-(5-nitrofuran-2-yl)allylidene)benzohydrazide] | 6.5
O=C(N/N=C/C=C/c1ccc([N+](=O)[O-])o1)c1ccc(O)cc1 [CBU-027, (E)-4-hydroxy-N′-((E)-3-(5-nitrofuran-2-yl)allylidene)benzohydrazide] | 7.5
O=C(N/N=C/C=C/c1ccc([N+](=O)[O-])o1)c1ccncc1 [CBU-033, (E)-N′-((E)-3-(5-nitrofuran-2-yl)allylidene)isonicotino-hydrazide] | 6

SMILES | IC50 [µM]
O=C(N/N=C/C=C/c1ccc([N+](=O)[O-])o1)c1cccs1 [CBU-034, (E)-N′-((E)-3-(5-nitrofuran-2-yl)allylidene)thiophene-2-carbohydrazide] | 20
O=C(N/N=C/C=C/c1ccc([N+](=O)[O-])o1)c1nc(O)c2ccccc2c1O [CBU-036, (E)-1,4-dihydroxy-N′-((E)-3-(5-nitrofuran-2-yl)allylidene)isoquinoline-3-carbohydrazide] | 9
Cc1cccc(C(=O)N/N=C/C=C/c2ccc([N+](=O)[O-])o2)c1O [CBU-038, (E)-2-hydroxy-3-methyl-N′-((E)-3-(5-nitrofuran-2-yl)allylidene)benzohydrazide] | 9
O=C(N/N=C/C=C/c1ccc([N+](=O)[O-])o1)c1cnc2cc(C(F)(F)F)ccc2c1O [CBU-039, (E)-4-hydroxy-N′-((E)-3-(5-nitrofuran-2-yl)allylidene)-7-(trifluoromethyl)quinoline-3-carbohydrazide] | 15
O=C(N/N=C/C=C/c1ccc([N+](=O)[O-])o1)c1cnc2c(C(F)(F)F)cccc2c1O [CBU-040, (E)-4-hydroxy-N′((E)-3-(5-nitrofuran-2-yl)allylidene)-8-(trifluoromethyl)quinoline-3-carbohydrazide] | 10
O=C(N/N=C/C=C/c1ccc([N+](=O)[O-])o1)c1cc(Br)ccc1O [CBU-041, (E)-5-bromo-2-hydroxy-N′-((E)-3-(5-nitrofuran-2-yl)allylidene)benzohydrazide] | 10
O=C(N/N=C/C=C/c1ccc([N+](=O)[O-])o1)c1ccc(O)cc1O [CBU-042, (E)-2,4-dihydroxy-N′-((E)-3-(5-nitrofuran-2-yl)allylidene)benzohydrazide] | 40
COc1ccc(C(=O)N/N=C/C=C/c2ccc([N+](=O)[O-])o2)c(O)c1 [CBU-043, (E)-2-hydroxy-4-methoxy-N′-((E)-3-(5-nitrofuran-2-yl)allylidene)benzohydrazide] | 30
Cc1ccc(O)c(C(=O)N/N=C/C=C/c2ccc([N+](=O)[O-])o2)c1 [CBU-045, (E)-2-hydroxy-5-methyl-N′-((E)-3-(5-nitrofuran-2-yl)allylidene)benzohydrazide] | 6
COc1ccc(O)c(C(=O)N/N=C/C=C/c2ccc([N+](=O)[O-])o2)c1 [CBU-046, (E)-2-hydroxy-5-methoxy-N′-((E)-3-(5-nitrofuran-2-yl)allylidene)benzohydrazide] | 10
O=C(N/N=C/C=C/c1ccccc1)c1cc2ccccc2cc1O [CBU-051, (E)-3-hydroxy-N′-((E)-3-phenylallylidene)-2-naphthohydrazide] | 10
CN(C)c1ccc(/C=C/C=N/NC(=O)c2cc3ccccc3cc2O)cc1 [CBU-054, (E)-N′-((E)-3-(4-(dimethylamino)phenyl)allylidene)-3-hydroxy-2-naphthohydrazide] | 15
O=C(N/N=C/C=C/c1ccccc1[N+](=O)[O-])c1cc2ccccc2cc1O [CBU-055, (E)-3-hydroxy-N′-((E)-3-(2-nitrophenyl)allylidene)-2-naphthohydrazide] | 6
O=C(N/N=C/C=C/c1ccc([N+](=O)[O-])cc1)c1cc2ccccc2cc1O [CBU-061, (E)-3-hydroxy-N′-((E)-3-(4-nitrophenyl)allylidene)-2-naphthohydrazide] | 5
O=C(/C=C/c1ccc([N+](=O)[O-])o1)NNC(=O)c1cc2ccccc2cc1O [CBU-062, (E)-3-hydroxy-N′-(3-(5-nitrofuran-2-yl)acryloyl)-2-naphthohydrazide] | 2.5
CC1(C)C(N(O)C(=S)Nc2ccc(Cl)cc2)N(c2ccc(Cl)cc2)C(=S)N1CC(=O)N/N=C/C=C/c1ccc([N+](=O)[O-])o1 (centres unmarked) [CBU-073] | 3
